The structures appear in SMILES notation.

The target in this assay is T1, CXCR4 (Homo sapiens, UniProt P61073).
T1 construct: Human T lymphoblast cells (CCRF-CEM) expressing endogenous CXCR4 receptors; endogenous in cells; host or cells: CCRF-CEM (human T lymphoblast cells)
T1 sequence (P61073 whole entry): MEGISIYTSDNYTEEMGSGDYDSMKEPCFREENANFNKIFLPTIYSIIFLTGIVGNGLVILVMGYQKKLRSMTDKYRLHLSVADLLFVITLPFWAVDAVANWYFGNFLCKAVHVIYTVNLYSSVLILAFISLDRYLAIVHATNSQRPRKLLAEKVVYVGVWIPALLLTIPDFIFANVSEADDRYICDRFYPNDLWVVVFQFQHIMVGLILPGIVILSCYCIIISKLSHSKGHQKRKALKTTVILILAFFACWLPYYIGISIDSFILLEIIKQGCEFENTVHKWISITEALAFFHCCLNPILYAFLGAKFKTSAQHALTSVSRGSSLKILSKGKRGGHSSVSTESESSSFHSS
Briefly: CXCR4-CEM calcium flux assay, antagonist mode (inhibition of SDF-1α-induced calcium flux). The following applies: CCRF-CEM cells expressing endogenous CXCR4, stimulated with 4 nM SDF-1α, read-out: CXCR4 Ca^2+ Flux IC50. The format is cell-based. How it is done:
CXCR4-CEM Calcium Flux Assays
Exemplary compounds of the invention were tested for their ability to induce or inhibit calcium flux in CCRF-CEM cells, a human cell line that endogenously expresses CXCR4. Activation of CXCR4 stimulates G protein signaling which, in CCRF-CEM cells, causes a series of downstream events that leads to the release of intracellular calcium stores, or calcium flux. Calcium ion concentrations can be easily measured using a wide variety of […] calcium indicators and, as a result, calcium flux assays are commonly employed methods for measuring G protein-coupled receptor (GPCR) activity. Because the therapeutic potential of CXCR4 antagonists as anti-cancer agents likely relies on their ability to inhibit CXCR4-mediated G protein signaling, this assay was utilized as a first-pass measure of inhibitor potency.
The cells were then equilibrated to room temperature for 30 minutes before assay. […] For “antagonist mode” assessment, the cells are subsequently incubated for 25 minutes at room temperature. SDF-1α (R&D System Cat #350-NS/CF) was then added at a final concentration of 4 nM to stimulate the cells. Inhibition of SDF-1α-induced calcium flux was monitored by FDSS6000 for 90 seconds.
After correcting for background, EC50 values were determined. […] Inhibition data for the test compound over a range of concentrations was plotted as percentage inhibition of the test compound as compared to an internal control compound.
Turning to `C(=C\CN(C[C@H]1Cc2ccccc2CN1)[C@H]1CCCc2cccnc21)/CNC1CCOCC1` [EMU155, (E)-N1-(tetrahydro-2H-pyran-4-yl)-N4-(((R)-1,2,3,4-tetrahydroisoquinolin-3-yl)methyl)-N4-((S)-5,6,7,8-tetrahydroquinolin-8-yl)but-2-ene-1,4-diamine], the IC50 worked out at 15.5 nM.
With `CC1(C)CCC(NCc2ccc(CN(C[C@H]3Cc4ccccc4CN3)[C@H]3CCCc4cccnc43)cc2)CC1` [EMU181, (S)—N-(4-(((4,4-dimethylcyclohexyl)amino)methyl)benzyl)-N—(((R)-1,2,3,4-tetrahydroisoquinolin-3-yl)methyl)-5,6,7,8-tetrahydroquinolin-8-amine], the IC50 is 661 nM.
In the case of `CN(CC1Cc2c(cccc2NC2CCNCC2)CN1)[C@H]1CCCc2cccnc21` (single isomer, unassigned) [EMU044 (Stereoisomer 1)], the IC50 came out at 18.1 nM.
Consider `CN(C[C@H]1Cc2c(cccc2N2CCN(c3ncccn3)CC2)CN1)[C@H]1CCCc2cccnc21` [EMU203], for which the IC50 amounted to 30.7 nM.
Turning to `CC(C)N1CCN(c2cccc3c2C[C@H](CN(C)[C@H]2CCCc4cccnc42)NC3)CC1` [EMU197], the IC50 is 16.9 nM.
As for `NC(=O)NC/C=C\CN(CC1Cc2ncccc2CN1)[C@H]1CCCc2cccnc21` (single isomer, unassigned) [EMU209 (Stereoisomer 1)], the IC50 stood at 463 nM.
As for `CN(CC1CN(Cc2ccccn2)CCN1)[C@H]1CCCc2cccnc21` (single isomer, unassigned) [EMU023], the IC50 is > 33300 nM.
The result for `CN(C[C@H]1Cc2c(cccc2N2CCN(c3cccc(C(F)(F)F)c3)CC2)CN1)[C@H]1CCCc2cccnc21` [EMU226] reads > 16700 nM; that for `CN(C[C@H]1Cc2c(cccc2N2CCN(C3COC3)CC2)CN1)[C@H]1CCCc2cccnc21` [EMU183], 380 nM.
For `NCc1ccc(CN(CC2Cc3ncccc3CN2)[C@H]2CCCc3cccnc32)cc1` (single isomer, unassigned) [EMU193], the IC50 stood at 17000 nM.
As for `CC1(C)CCC(NC/C=C/CN(C[C@H]2Cc3ccccc3CN2)[C@H]2CCCc3cccnc32)CC1` [EMU153, (E)-N1-(4,4-dimethylcyclohexyl)-N4-(((R)-1,2,3,4-tetrahydroisoquinolin-3-yl)methyl)-N4-((S)-5,6,7,8-tetrahydroquinolin-8-yl)but-2-ene-1,4-diamine], the IC50 came out at 64.6 nM.
As to `Cc1cccnc1CN(CCCN1CCNCC1)C[C@H]1Cc2c(cccc2N2CCNCC2)CN1` [EMU164, (R)—N-((3-methylpyridin-2-yl)methyl)-3-(piperazin-1-yl)-N-((5-(piperazin-1-yl)-1,2,3,4-tetrahydroisoquinolin-3-yl)methyl)propan-1-amine], the IC50 was determined as 33.7 nM.
The result for `C[C@@H](c1ccccn1)N(C[C@H]1Cc2ccccc2CN1)C[C@H]1Cc2ccccc2CN1` [EMU065, (S)-1-(pyridin-2-yl)-N,N-bis(((R)-1,2,3,4-tetrahydroisoquinolin-3-yl)methyl)ethanamine] reads 1100 nM; that for `C(=C\CN(C[C@H]1Cc2ccccc2CN1)[C@H]1CCCc2cccnc21)/CNCc1ccccn1` [EMU223, (E)-N1-(pyridin-2-ylmethyl)-N4-(((R)-1,2,3,4-tetrahydroisoquinolin-3-yl)methyl)-N4-((S)-5,6,7,8-tetrahydroquinolin-8-yl)but-2-ene-1,4-diamine], 58.3 nM.
The result for `C(=C\CN(C[C@H]1Cc2ccccc2CN1)[C@H]1CCCc2cccnc21)/CNCC1CCOCC1` [EMU180, (E)-N1-((tetrahydro-2H-pyran-4-yl)methyl)-N4-(((R)-1,2,3,4-tetrahydroisoquinolin-3-yl)methyl)-N4-((S)-5,6,7,8-tetrahydroquinolin-8-yl)but-2-ene-1,4-diamine] reads 24.2 nM.
For the compound `NCc1cccc(CN(C[C@H]2Cc3ccccc3CN2)[C@H]2CCCc3cccnc32)c1` [EMU094, (S)—N-(3-(aminomethyl)benzyl)-N—(((R)-1,2,3,4-tetrahydroisoquinolin-3-yl)methyl)-5,6,7,8-tetrahydroquinolin-8-amine], the IC50 turned out to be 292 nM.
For the compound `NC1CCC(N(C[C@H]2Cc3ccccc3CN2)[C@H]2CCCc3cccnc32)CC1` (single isomer, unassigned) [EMU073 (Stereoisomer 1)], the IC50 is 33.7 nM.
Take `CN(C[C@H]1Cc2c(cccc2N[C@H]2CC[C@H](N)CC2)CN1)[C@H]1CCCc2cccnc21` [EMU089]: the IC50 came out at 755 nM.
Consider `CN1Cc2cccc(N3CCN4CCC[C@H]4C3)c2C[C@@H]1CN(C)[C@H]1CCCc2cccnc21` [EMU241], for which the IC50 was 58.1 nM.
Turning to `C/C(=C/CN(C[C@H]1Cc2ccccc2CN1)[C@H]1CCCc2cccnc21)CN` [EMU177], the IC50 was 13.2 nM.
On to `c1cnc2c(c1)CCC[C@@H]2N(CCCN1CCNCC1)Cc1nc2ccccc2[nH]1` [EMU185, (S)—N-((1H-benzo[d]imidazole-2yl)methyl)-N-(3-(piperazine-1yl)propyl)-5,6,7,8-tetrahydroquinolin-8-amine], for which the IC50 stood at 45.3 nM.
As for `c1cnc2c(c1)CCC[C@@H]2N(CC1CC1)C[C@H]1Cc2c(cccc2N2CCNCC2)CN1` [EMU119], the IC50 stood at 26.6 nM.
As for `CN1CCN(c2cccc3c2CC(CN(C)[C@H]2CCCc4cccnc42)N(C)C3)CC1` (stereo partly shown) [EMU090], the IC50 was found to be 171 nM.
As to `CCN1CCN(c2cccc3c2C[C@H](CN(C)[C@H]2CCCc4cccnc42)NC3)CC1` [EMU199], the IC50 amounted to 13.8 nM.
The result for `c1cnc2c(c1)CCC[C@@H]2N(CC1CCCCC1)CC1Cc2c(cccc2N2CCNCC2)CN1` (single isomer, unassigned) [EMU100 (Stereoisomer 2)] reads 1290 nM; that for `Cc1cnc(CN(C)C[C@H]2Cc3c(cccc3N3CCNCC3)CN2)c(C)c1` [EMU107, (R)-1-(3,5-dimethylpyridin-2-yl)-N-methyl-N-((5-(piperazin-1-yl)-1,2,3,4-tetrahydroisoquinolin-3-yl)methyl)methanamine], 21.4 nM; that for `CN(C)[C@@H]1CCN(c2cccc3c2C[C@H](CN(C)[C@H]2CCCc4cccnc42)NC3)C1` [EMU237], 10.4 nM.
In the case of `CN1Cc2cccc(N3CCNCC3)c2C[C@@H]1CN(C)[C@H]1CCCc2cccnc21` [EMU234], the IC50 was 32 nM.
Take `CN1Cc2cccc(N3CCN4CCC[C@@H]4C3)c2C[C@@H]1CN(C)[C@H]1CCCc2cccnc21` [EMU239]: the IC50 came out at 44.6 nM.
With `Cc1ccc(CN(CCCCN)C[C@H]2Cc3c(cccc3N3CCNCC3)CN2)nc1` [EMU165, (R)—N1-((5-methylpyridin-2-yl)methyl)-N1-((5-(piperazin-1-yl)-1,2,3,4-tetrahydroisoquinolin-3-yl)methyl)butane-1,4-diamine], the IC50 was found to be 115 nM.
Turning to `C[C@@H]1CN(c2cccc3c2C[C@H](CN(C)[C@H]2CCCc4cccnc42)NC3)C[C@H](C)N1C` [EMU198], the IC50 was found to be 14.1 nM.
Regarding `FC1(F)CCC(CN(C[C@H]2Cc3c(cccc3N3CCNCC3)CN2)[C@H]2CCCc3cccnc32)CC1` [EMU120], the IC50 worked out at 498 nM.
Regarding `NC/C=C\CN(CC1Cc2ncccc2CN1)[C@H]1CCCc2cccnc21` (single isomer, unassigned) [EMU142 (Stereoisomer 1)], the IC50 is 25.6 nM.
On to `CN(C)C1CCN(c2cccc3c2C[C@H](CN(C)[C@H]2CCCc4cccnc42)NC3)CC1` [EMU228], for which the IC50 came to 35.9 nM.
In the case of `Cc1cccnc1CN(C)C[C@H]1Cc2c(cccc2N2CCNCC2)CN1` [EMU127, (R)—N-methyl-1-(3-methylpyridin-2-yl)-N-((5-(piperazin-1-yl)-1,2,3,4-tetrahydroisoquinolin-3-yl)methyl)methanamine], the IC50 came out at 91.2 nM.
In the case of `NC/C=C\CN(CC1Cc2ncccc2CN1)[C@H]1CCCc2cccnc21` (single isomer, unassigned) [EMU142 (Stereoisomer 2)], the IC50 came to 503 nM.
Turning to `CC(C)N(C[C@H]1Cc2c(cccc2N2CCNCC2)CN1)[C@H]1CCCc2cccnc21` [EMU163], the IC50 came to 364 nM.
Consider `CN(CC1Cc2c(cccc2N2CCC(N)CC2)CN1)[C@H]1CCCc2cccnc21` (single isomer, unassigned) [EMU058], for which the IC50 was found to be 33.4 nM.
The result for `CC(C)(CCN)CN(C[C@H]1Cc2ccccc2CN1)[C@H]1CCCc2cccnc21` [EMU075] reads > 33300 nM; that for `Cc1ccc(CN(C)C[C@H]2Cc3c(cccc3N3CCNCC3)CN2)nc1` [EMU130, (R)—N-methyl-1-(5-methylpyridin-2-yl)-N-((5-(piperazin-1-yl)-1,2,3,4-tetrahydroisoquinolin-3-yl)methyl)methanamine], 510 nM.
For the compound `CN(CC1Cc2c(cccc2N2CCNCC2)CN1)[C@H]1CCCc2cccnc21` (single isomer, unassigned) [EMU034 (Stereoisomer 2)], the IC50 was determined as 314 nM.
As to `c1ccc2c(c1)CN[C@@H](CN(Cc1ccc(CNC3CCOCC3)cc1)[C@H]1CCCc3cccnc31)C2` [EMU217, (S)—N-(4-(((tetrahydro-2H-pyran-4-yl)amino)methyl)benzyl)-N—(((R)-1,2,3,4-tetrahydroisoquinolin-3-yl)methyl)-5,6,7,8-tetrahydroquinolin-8-amine], the IC50 stood at 90.3 nM.
The result for `c1cnc(CN(CCCN2CCNCC2)[C@H]2CCCc3cccnc32)nc1` [EMU187, (S)—N-(3-(piperazin-1yl)propyl)-N-(pyrimidin-2ylmethyl)-5,6,7,8-tetrahydroquinolin-8-amine] reads 4320 nM.

In general, IC50 refers to the concentration that gives 50% inhibition.
